Assay results from patent US9296734B2 (AMGEN INC., priority 2013, dated 2016).
Read-outs that look alike come from different tables or passages of the source.

Key:
[1] = target: Beta Secretase enzyme (BACE) (Homo sapiens (Human), UniProt P56817); experiment: In vitro enzymatic BACE FRET assay; assay type: biochemical; conditions: read-out: BACE 1 FRET assay IC50
Method in brief: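 A quenched fluorophore-peptide spanning the BACE cleavage site served as substrate at 50 nM, with one-hour incubation in pH 4.2 acetate buffer containing 100 uM genapol and 10% DMSO final. Fluorescence was measured after quenching with Tris to neutral pH.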

Cathepsin D (Cat D) = Cathepsin D (Cat D) (Homo sapiens (Human), UniProt P07339); experiment: In vitro enzymatic Cathepsin D (Cat D) FRET assay; assay type: biochemical; conditions: read-out: CatD IC50
Chain of Cathepsin D (Cat D) (P07339 65-412, species assumed): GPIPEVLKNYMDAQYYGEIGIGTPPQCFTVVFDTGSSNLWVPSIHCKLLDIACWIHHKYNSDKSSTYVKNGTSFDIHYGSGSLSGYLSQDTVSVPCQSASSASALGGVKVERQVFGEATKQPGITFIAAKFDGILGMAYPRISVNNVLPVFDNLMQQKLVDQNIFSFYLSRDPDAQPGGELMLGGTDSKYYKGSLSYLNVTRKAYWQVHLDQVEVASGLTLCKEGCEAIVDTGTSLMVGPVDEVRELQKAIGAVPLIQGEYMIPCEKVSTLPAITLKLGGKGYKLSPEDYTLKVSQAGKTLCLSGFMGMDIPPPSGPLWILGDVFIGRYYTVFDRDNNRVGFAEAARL
Method in brief: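 CHO-expressed recombinant Cat D cleaves a fluorophore/quencher FRET peptide (20 nM) in 0.05 M citrate pH 3.5, 5 mM CHAPS, 10% DMSO final, over 1 h. Tris addition neutralizes pH to stop the reaction; fluorescence read at excitation 500 nm, emission 580 nm.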

[2] = tested on: Aβ40 in conditioned medium of cells stably expressing Amyloid Precursor Protein (APP); experiment: In vitro BACE cell-based assay (Aβ40 sandwich ELISA); conditions: Homo sapiens, read-out: HEK cell assay IC50
Method in brief: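 Aβ40 in supernatants was measured by time-resolved fluorescence sandwich ELISA using pAb40 capture and biotinylated 6E10 detection, with antibody incubations at 4 °C. Stable APP cells were exposed to compounds for 24 h in a 10-point series (top dose 100 or 10 µM, 0.1% DMSO). IC50 was fitted from the concentration-response.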

[3] = tested on: Abeta 40 in CSF and brain; experiment: In vivo inhibition of beta-secretase: Abeta 40 reduction in CSF and brain of the rat; conditions: 10 mpk (unless otherwise noted), after 4 hrs
Source text: In Vivo Inhibition of Beta-Secretase
Several animal models, including mouse, rat, dog, and monkey, may be used to screen for inhibition of beta-secretase activity in vivo following administration of a test compound sample. Animals used in this invention can be wild type, transgenic, or gene knockout animals. […] A separate group of animals receive 2% hydroxypropyl methylcellulose, 1% Tween80 alone, containing no test compound, and serve as a vehicle-control group. At the end of the test period, animals are sacrificed and brain tissues, plasma or cerebrospinal fluid are collected. […] Homogenates are centrifuged at 355,000 g, 4° C. for 30 minutes. CSF or brain supernatants are then analyzed for the presence of A-beta peptide by specific sandwich ELISA assays based on ECL (Electrochemiluminescence) technology. For example, rat Abeta40 is measured using biotinylated-4G8 (Signet) as a capture antibody and Fab40 (an in-house antibody specific to the C-terminal of Abeta40) as a detection antibody.
Actual vehicles used: Oral: 2% HPMC, 1% Tween80, pH 2.2

[4] = HEK293, average IC50, HEK cells
[5] = Abeta 40, rat CSF, read-out: % reduction of rat CSF levels at 10 pmk
[6] = Abeta 40, rat brain, read-out: % reduction of rat brain levels at 10 mpk
[7] = average IC50, BACE enzyme assay
[8] = average IC50, cathepsin D enzyme assay
[9] = HEK293, average IC50, HEK cell assay

Chain of Beta Secretase enzyme (BACE) (P56817 46-501): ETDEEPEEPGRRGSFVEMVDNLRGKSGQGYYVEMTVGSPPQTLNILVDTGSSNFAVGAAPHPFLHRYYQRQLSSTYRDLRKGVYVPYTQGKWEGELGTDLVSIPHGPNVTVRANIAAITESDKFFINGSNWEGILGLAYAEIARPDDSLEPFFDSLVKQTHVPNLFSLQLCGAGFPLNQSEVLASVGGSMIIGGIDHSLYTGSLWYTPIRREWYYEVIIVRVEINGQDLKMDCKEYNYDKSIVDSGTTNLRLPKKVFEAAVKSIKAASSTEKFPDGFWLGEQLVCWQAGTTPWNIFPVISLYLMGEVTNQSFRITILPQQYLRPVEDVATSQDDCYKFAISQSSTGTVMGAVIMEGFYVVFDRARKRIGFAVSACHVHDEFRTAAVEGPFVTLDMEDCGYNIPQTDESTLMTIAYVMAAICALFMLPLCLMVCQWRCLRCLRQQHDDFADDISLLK

Row | SMILES | IC50 ([1]; average IC50) [µM] | IC50 (Cathepsin D (Cat D); average IC50) [µM] | IC50 [2, 4] [µM] | inhibition in vivo at 10 mg/kg [3, 5] [%] | inhibition in vivo at 10 mg/kg [3, 6] [%] | IC50 [1, 7] [µM] | IC50 (Cathepsin D (Cat D); [8]) [µM] | IC50 [2, 9] [µM] | IC50 (Cathepsin D (Cat D); average) [µM] | IC50 ([1]; average) [µM] | IC50 ([2]; HEK293, HEK cells, average) [µM]
1 | COc1cnc(C(=O)Nc2ccc(F)c([C@]3(CF)C[C@@H](C(F)(F)F)OC(N)=N3)c2)c(Cl)c1 [Example 50, N-(3-((4S,6S)-2-amino-4-(fluoromethyl)-6-(trifluoromethyl)-5,6-dihydro-4H-1,3-oxazin-4-yl)-4-fluorophenyl)-3-chloro-5-methoxypicolinamide] | 0.0238 | > 400 | 0.0265 | 50 | 22 | – | – | – | – | – | –
2 | COc1cnc(C(=O)Nc2cc(F)c(F)c([C@]3(C)C[C@@H](C(F)(F)F)OC(N)=N3)c2)cn1 [Example 165, N-(3-((4S,6S)-2-amino-4-methyl-6-(trifluoromethyl)-5,6-dihydro-4H-1,3-oxazin-4-yl)-4,5-difluorophenyl)-5-methoxypyrazine-2-carboxamide] | – | – | – | 75 | 76 | 0.078 | 5350 | 0.0098 | – | – | –
3 | COc1cnc(C(=O)Nc2cc(F)c(F)c([C@]3(C)C[C@@H](C(F)(F)F)OC(N)=N3)c2)c(Cl)c1 [Example 169, N-(3-((4S,6S)-2-amino-4-methyl-6-(trifluoromethyl)-5,6-dihydro-4H-1,3-oxazin-4-yl)-4,5-difluorophenyl)-3-chloro-5-methoxypicolinamide] | – | – | – | 48 | 46 | 0.037 | > 400 | 0.0089 | – | – | –
4 | COc1ccc(C(=O)Nc2cc(F)c(F)c([C@]3(C)C[C@@H](C(F)(F)F)OC(N)=N3)c2)nc1 [Example 201, N-(3-((4S,6S)-2-amino-4-methyl-6-(trifluoromethyl)-5,6-dihydro-4H-1,3-oxazin-4-yl)-4,5-difluorophenyl)-5-methoxypicolinamide] | – | – | – | 75 | 76 | – | – | – | 762 | – | –
5 | Cc1cc(NC(=O)c2ccc(Cl)cn2)cc([C@]2(CF)C[C@@H](C(F)(F)F)OC(N)=N2)c1F [Example 224, N-(3-((4S,6S)-2-amino-4-(fluoromethyl)-6-(trifluoromethyl)-5,6-dihydro-4H-1,3-oxazin-4-yl)-4-fluoro-5-methylphenyl)-5-chloropicolinamide] | – | – | – | 62 | 51 | – | – | – | 515 | 0.013 | 0.007
6 | C[C@@]1(c2cc(NC(=O)c3ccc(Cl)cn3)cc(F)c2F)C[C@@H](C(F)(F)F)OC(N)=N1 [Example 164, N-(3-((4S,6S)-2-amino-4-methyl-6-(trifluoromethyl)-5,6-dihydro-4H-1,3-oxazin-4-yl)-4,5-difluorophenyl)-5-chloropicolinamide] | – | – | – | 77 | 75 | 0.024 | 1350 | 0.0052 | – | – | –
7 | C[C@@]1(c2cc(NC(=O)c3ncc(C#N)cc3Cl)cc(F)c2F)C[C@@H](C(F)(F)F)OC(N)=N1 [Example 167, N-(3-((4S,6S)-2-amino-4-methyl-6-(trifluoromethyl)-5,6-dihydro-4H-1,3-oxazin-4-yl)-4,5-difluorophenyl)-3-chloro-5-cyanopicolinamide] | – | – | – | 42 | 15 | – | 113 | – | – | – | –
8 | COc1cnc(C(=O)Nc2cc(C)c(F)c([C@]3(CF)C[C@@H](C(F)(F)F)OC(N)=N3)c2)cn1 [Example 227, N-(3-((4S,6S)-2-amino-4-(fluoromethyl)-6-(trifluoromethyl)-5,6-dihydro-4H-1,3-oxazin-4-yl)-4-fluoro-5-methylphenyl)-5-methoxypyrazine-2-carboxamide] | – | – | – | 69 | 65 | – | – | – | > 400 | 0.03 | 0.023
9 | COc1cnc(C(=O)Nc2ccc(F)c([C@]3(CF)C[C@@H](C(F)(F)F)OC(N)=N3)c2)cn1 [Example 2, N-(3-((4S,6S)-2-amino-4-(fluoromethyl)-6-(trifluoromethyl)-5,6-dihydro-4H-1,3-oxazin-4-yl)-4-fluorophenyl)-5-methoxypyrazine-2-carboxamide] | – | > 400 | – | 70 | 61 | – | – | – | – | – | –
10 | C#CCOc1cnc(C(=O)Nc2cc(F)c(F)c([C@]3(CF)C[C@@H](C(F)(F)F)OC(N)=N3)c2)cn1 [Example 154, N-(3-((4S,6S)-2-amino-4-(fluoromethyl)-6-(trifluoromethyl)-5,6-dihydro-4H-1,3-oxazin-4-yl)-4,5-difluorophenyl)-5-(prop-2-yn-1-yloxy)pyrazine-2-carboxamide] | – | – | – | 67 | 71 | 0.0014 | > 400 | 0.0096 | – | – | –
11 | NC1=N[C@](CF)(c2nc(NC(=O)c3nn(C(F)F)cc3Cl)ccc2F)C[C@@H](C(F)(F)F)O1 [Example 135, N-(6-((4S,6S)-2-amino-4-(fluoromethyl)-6-(trifluoromethyl)-5,6-dihydro-4H-1,3-oxazin-4-yl)-5-fluoropyridin-2-yl)-4-chloro-1-(difluoromethyl)-1H-pyrazole-3-carboxamide] | – | – | – | 64 | 55 | 0.052 | 1170 | 0.031 | – | – | –
12 | NC1=N[C@](CF)(c2cc(Nc3cc(Cl)ccn3)ccc2F)C[C@@H](C(F)(F)F)O1 [Example 16, (4S,6S)-4-(5-((4-chloropyridin-2-yl)amino)-2-fluorophenyl)-4-(fluoromethyl)-6-(trifluoromethyl)-5,6-dihydro-4H-1,3-oxazin-2-amine] | – | – | – | 83 | 87 | – | 1630 | – | – | – | –
13 | Cc1cc(C#N)cnc1C(=O)Nc1ccc(F)c([C@]2(CF)C[C@@H](C(F)(F)F)OC(N)=N2)c1 [Example 51, N-(3-((4S,6S)-2-amino-4-(fluoromethyl)-6-(trifluoromethyl)-5,6-dihydro-4H-1,3-oxazin-4-yl)-4-fluorophenyl)-5-cyano-3-methylpicolinamide] | – | – | – | 68 | 59 | – | – | – | – | – | –
14 | NC1=N[C@](CF)(c2cc(NC(=O)c3ccc(Br)cn3)ccc2F)C[C@@H](C(F)(F)F)O1 [Example 52, N-(3-((4S,6S)-2-amino-4-(fluoromethyl)-6-(trifluoromethyl)-5,6-dihydro-4H-1,3-oxazin-4-yl)-4-fluorophenyl)-5-bromopicolinamide] | – | > 400 | – | 61 | 54 | – | – | – | – | – | –
15 | Cc1cc(C(F)F)cnc1C(=O)Nc1cc(F)c(F)c([C@]2(C)C[C@@H](C(F)(F)F)OC(N)=N2)c1 [Example 171, N-(3-((4S,6S)-2-amino-4-methyl-6-(trifluoromethyl)-5,6-dihydro-4H-1,3-oxazin-4-yl)-4,5-difluorophenyl)-5-(difluoromethyl)-3-methylpicolinamide] | – | – | – | 25 | 10 | 0.043 | 2060 | 0.017 | – | – | –
16 | C[C@@]1(c2cc(NC(=O)c3ccc(Cl)cn3)cnc2F)C[C@@H](C(F)(F)F)OC(N)=N1 [Example 60, N-(5-((4S,6S)-2-amino-4-methyl-6-(trifluoromethyl)-5,6-dihydro-4H-1,3-oxazin-4-yl)-6-fluoropyridin-3-yl)-5-chloropicolinamide] | 0.0528 | > 400 | 0.0135 | 79 | 72 | – | – | – | – | – | –
17 | C#CCOc1cnc(C(=O)Nc2cc(F)c(F)c([C@]3(C)C[C@@H](C(F)(F)F)OC(N)=N3)c2)cn1 [Example 190, N-(3-((4S,6S)-2-amino-4-methyl-6-(trifluoromethyl)-5,6-dihydro-4H-1,3-oxazin-4-yl)-4,5-difluorophenyl)-5-(prop-2-yn-1-yloxy)pyrazine-2-carboxamide] | – | – | – | – | – | > 40 | > 400 | > 15.6 | 505 | 0.002 | 0.002
